# Measured values reported in US12076399B2, “Combination therapies for treating cancers” (Cothera Bioscience, Inc., priority 2017, dated 2024).
# Columns and labels:
# Assay in all cases: Ex vivo drug sensitivity test (EdU proliferation, EpCAM+ cells, high-content imaging) on conditionally reprogrammed patient-derived tumor cells
# Assay type in all cases: cell-based, human
# [1] = test system: patient-derived epithelial tumor cells, colon; settings: EpCAM and Edu positive readout, AUC concentration
# Text: (§1) Surgical specimen from colorectal cancer patients, liver cancer patients, lung cancer patients, pancreatic cancer, gastric cancer patients and breast cancer patients were obtained from the Beijing Cancer Hospital and the Cancer Hospital of Chinese Academy of Medical Science after receiving patient consensus. Patient-derived xenograft tumor specimens were obtained from Nod/SCID mice inoculated with surgical tumor specimen from patients.
# (§2) For ex vivo drug sensitivity assays, the tumor cells were isolated from the patient tissue sample or PDX xenograft tumor tissue. Briefly, the tumor tissues were cut into small pieces less than 1 mm in diameter using scissors. The tumor fragments were transferred into a sterile 100-ml triangle glass flask loaded with a magnet stir bar. A 10-15 ml digestion media containing 0.25 U/ml Liberase DH was added into the minced tumor tissues to start enzyme digestion. The enzyme mixture was incubated at 37° C. for 1-2 hours with moderate stirring. The digested tumor tissue was filtered through a 100-μm cell retainer. The filtrates were re-filtered through a 40-μm cell restrainer. The tumor cell clusters retained on the 40-μm cell restrainer was collected, wash twice with HBSS, then re-suspended in a defined growth media supplemented with several stem cell growth factors.
# (§3) The tumor cell clusters retained on the 40-μm cell restrainer were collected, wash twice with HBSS, then re-suspended in a defined growth media supplemented with cell growth factors and small molecule inhibitors. The tumor cell clusters were recovered in a defined growth medium overnight. The defined growth medium was StemPro® hESC SFM (defined, serum- and feeder-free medium (SFM)) supplemented with: Nicotinamide, Wnt3A, Noggin (Bone Morphogenetic Protein (BMP) inhibitor), R-spondin-1 (Wnt/β-catenin signaling agonist), and Y27632 (Rho-associated, coiled-coil containing protein kinase (ROCK-1) inhibitor).
# (§4) For conditional reprogramming, the recovered CTOSs were dissociated into single cells and seeded in a feeder cell/Rock inhibitor (Y27632) co-culture system at about 3000 cells per well in cell culture plate, and grow at 37 C for 3 days.
# (§5) For ex vivo drug testing, the seeded tumor cells were exposed to seven EGFR inhibitors, three MEK 1/2 inhibitors, and three CDK 4/6 inhibitors alone, or a combination of EGFR inhibitor and MEK 1/2 inhibitor, a combination of EGFR inhibitor and CDK 4/6 inhibitor, a combination of MEK 1/2 inhibitor and CDK 4/6 inhibitor, and a triple combination of EGFR inhibitor, MEK 1/2 inhibitor, and a CDK 4/6 inhibitor for 72 hours. The treated tumor cells were re-exposed to the same drug or drug combination with a fresh media change for another 72 hours. All drugs were prepared in DMSO and the final concentration of DMSO in media was 0.1%. The tested concentration of the drug and drug combinations were at relevant AUC concentration (see Table E1).
# (§6) Following exposure with drug, the epithelial tumor cells were labeled with 5-ethynyl-2′-deoxyuridine (Edu) to assess the tumor cell proliferation rates. The labeling lasted 24 hours in the presence of drug exposure. In the control group, epithelial tumor cells received no drug exposure with media change, but were similarly labeled with Edu. The labeled tumor cell were fixed and stained with Hoechst 33342 in blocking buffer containing 0.5% Triton X-100 and 3% BSA overnight at 4° C. The tumor cells were incubated with EpCAM antibody (1:4000) for 2 hours at room temperature and rinsed with PBST. Subsequently, the tumor cells were incubated with Alexa FluorR 647 conjugated goat-anti-mouse secondary antibody for 30 minutes at room temperature and rinsed with PBST.
# (§7) The incorporated Edu was detected by Click-iT reaction where fixed cells were incubated with a reaction mixture containing 1× Click-iT Edu reaction buffer, CuSO4, and azide-conjugated Alexa Fluor dye in the dark. The stained cells were washed with PBS two times before image acquisition and analysis. […]
# [2] = test system: patient-derived epithelial tumor cells, gastric; settings: EpCAM and Edu positive readout, AUC concentration
# Text: as §1, §2, §3, §4, §5, §6, §7
# [3] = test system: patient-derived epithelial tumor cells, pancrea; settings: patient ZKB-011, pancrea; EpCAM and Edu positive readout; AUC concentration
# Text: as §1, §2, §3, §4, §5, §6, §7
SMILES,"Inhibition percentage ([1]; patient NYL-040, colon) [%]","MI (Maximum Inhibition Index) ([1]; patient NYL-040, colon)","Inhibition percentage ([1]; patient NYL-053, colon) [%]","MI (Maximum Inhibition Index) ([1]; patient NYL-053, colon)","Inhibition percentage ([1]; patient NYL-109, colon) [%]","MI (Maximum Inhibition Index) ([1]; patient NYL-109, colon)","Inhibition percentage ([1]; patient NYL-113, colon) [%]","MI (Maximum Inhibition Index) ([1]; patient NYL-113, colon)","Inhibition percentage ([1]; patient NYL-132, colon) [%]","MI (Maximum Inhibition Index) ([1]; patient NYL-132, colon)","Inhibition percentage ([1]; patient NYL-149, colon) [%]","MI (Maximum Inhibition Index) ([1]; patient NYL-149, colon)","Inhibition percentage ([1]; patient NYL-161, colon) [%]","MI (Maximum Inhibition Index) ([1]; patient NYL-161, colon)","Inhibition percentage ([1]; patient NYL-170, colon) [%]","MI (Maximum Inhibition Index) ([1]; patient NYL-170, colon)","Inhibition percentage ([1]; patient NYL-HZ-002, colon) [%]","MI (Maximum Inhibition Index) ([1]; patient NYL-HZ-002, colon)","Inhibition percentage ([1]; patient ZKB-007, colon) [%]","MI (Maximum Inhibition Index) ([1]; patient ZKB-007, colon)",other results
"CC(C)(C)c1nc(-c2cccc(NS(=O)(=O)c3c(F)cccc3F)c2F)c(-c2ccnc(N)n2)s1 [D, Dabrafenib]",7.18,1.08,9.11,1.10,34.25,1.52,−3.84,0.96,29.59,1.42,75.06,4.01,−6.33,0.94,52.58,2.11,0.00,0.83,0.00,0.91,"Inhibition percentage ([1]; patient ZKB-070, colon): 15.53%; MI (Maximum Inhibition Index) ([1]; patient ZKB-070, colon): 1.18; Inhibition percentage ([1]; patient ZKB-171, colon): 15.07%; MI (Maximum Inhibition Index) ([1]; patient ZKB-171, colon): 1.18; Inhibition percentage ([2]; patient NYP-006, gastric): 0.00%; MI (Maximum Inhibition Index) ([2]; patient NYP-006, gastric): 0.47; Inhibition percentage ([2]; patient ZKB-165, gastric): 45.31%; MI (Maximum Inhibition Index) ([2]; patient ZKB-165, gastric): 1.83; Inhibition percentage [3]: 0.00%; MI (Maximum Inhibition Index) [3]: 1.00"
"CC(=O)c1c(C)c2cnc(Nc3ccc(N4CCNCC4)cn3)nc2n(C2CCCC2)c1=O [P, Palbociclib]",85.02,6.68,63.04,2.71,40.42,1.68,44.25,1.79,48.53,1.94,57.40,2.35,26.16,1.35,67.64,3.09,52.48,2.10,66.72,3.00,"Inhibition percentage ([1]; patient CKY-041, colon): 9.05%; MI (Maximum Inhibition Index) ([1]; patient CKY-041, colon): 1.10; Inhibition percentage ([1]; patient ZKB-070, colon): 77.00%; MI (Maximum Inhibition Index) ([1]; patient ZKB-070, colon): 4.35; Inhibition percentage ([1]; patient ZKB-171, colon): 30.13%; MI (Maximum Inhibition Index) ([1]; patient ZKB-171, colon): 1.43; Inhibition percentage ([2]; patient NYP-006, gastric): 65.36%; MI (Maximum Inhibition Index) ([2]; patient NYP-006, gastric): 2.89; Inhibition percentage ([2]; patient ZKB-165, gastric): 86.45%; MI (Maximum Inhibition Index) ([2]; patient ZKB-165, gastric): 7.38; Inhibition percentage [3]: 85.40%; MI (Maximum Inhibition Index) [3]: 6.85"
"CC(=O)Nc1cccc(-n2c(=O)n(C3CC3)c(=O)c3c(Nc4ccc(I)cc4F)n(C)c(=O)c(C)c32)c1 [T, Trametinib]",0.00,0.85,49.02,1.96,86.79,7.57,46.31,1.86,29.60,1.42,75.78,4.13,0.59,1.01,0.00,0.61,51.53,2.06,0.00,0.76,"Inhibition percentage ([1]; patient CKY-041, colon): 5.05%; MI (Maximum Inhibition Index) ([1]; patient CKY-041, colon): 1.05; Inhibition percentage ([1]; patient ZKB-070, colon): −34.50%; MI (Maximum Inhibition Index) ([1]; patient ZKB-070, colon): 0.74; Inhibition percentage ([1]; patient ZKB-171, colon): 46.02%; MI (Maximum Inhibition Index) ([1]; patient ZKB-171, colon): 1.85; Inhibition percentage ([2]; patient NYP-006, gastric): 0.00%; MI (Maximum Inhibition Index) ([2]; patient NYP-006, gastric): 0.55; Inhibition percentage ([2]; patient ZKB-165, gastric): 0.00%; MI (Maximum Inhibition Index) ([2]; patient ZKB-165, gastric): 0.60; Inhibition percentage [3]: 7.36%; MI (Maximum Inhibition Index) [3]: 1.08"
